Measurements from patent publication US10711007B2, “Selective inhibitors of protein arginine methyltransferase 5 (PRMT5)” (Prelude Therapeutics, Incorporated, priority 2018, dated 2020).

What was measured:
[1] = system: γ-globin expression in K562 cells; assay: γ-globin induction by quantitative PCR in K562 cells; assay type: cell-based; settings: 1 μM, 6 days of treatment, N=1
Procedure: Compounds were dissolved in DMSO to make 10 mM stock solutions, and further diluted to make 1 mM and 0.1 mM stocks.
K562 cells were purchased from ATCC and maintained in Iscove's DMEM (Corning Cellgro, Catalog #15-016-CVR) supplemented with 10% v/v FBS (GE Healthcare, Catalog #: SH30910.03) in a CO2 incubator (5% CO2) at 37° C. Cells were plated at a density of 5×10^5 cells/ml and treated with compound at final concentrations of 0.1 and 1 μM. Media and compound were renewed after 3 days in culture and cells were collected for RNA isolation after 6 days of treatment.
Assessment of γ-Globin Induction by Quantitative PCR
RNA was isolated using Quick-RNA Microprep kit (Zymo Research, Catalog # Z1050), cDNA was synthesized using qScript cDNA SuperMix (Quantabio, Catalog #95048). Quantitative PCR for y-globin was performed using PerfeCTa SYBR Green FastMix (Quantabio, Catalog #95071) on Bio-Rad CFX Connect Real-Time PCR Detection System. Gene expression analysis was performed using CFX Manager software.
Assessment of γ-Globin Induction by Quantitative PCR in K562 Cells
Compounds were dissolved in DMSO to make 10 mM stock solutions, and further diluted to make 1 mM and 0.1 mM stocks. K562 cells were purchased from ATCC and maintained in Iscove's DMEM (Corning Cellgro, Catalog #15-016-CVR) supplemented with 10% v/v FBS (GE Healthcare, Catalog #: SH30910.03) in a CO2 incubator (5% CO2) at 37° C. […]

[2] = system: sDMA marks (SmD3me2s) in U-87 MG cells; assay: Western blotting for symmetric di-methyl arginine (sDMA) marks in U-87 MG cells; assay type: cell-based; settings: Homo sapiens, 72 h; U-87 MG cell line, 3 days
Procedure: Cell Treatment and Western Blotting for Detecting Symmetric Di-Methyl Arginine (sDMA) Marks
Compound Titration and Cell Culture:
Compounds were dissolved in DMSO to make 10 mM stock and 3-fold series dilutions were further conducted to make working stocks top at 1 mM. Granta-519 cells were maintained in PRMI 1640 (Corning Cellgro, Catalog #: 10-040-CV) supplemented with 10% v/v FBS (GE Healthcare, Catalog #: SH30910.03) and U-87 MG cells were maintained in DMEM (Corning Cellgro, Catalog #: 10-013-CV) with 10% FBS and 2 mM Glutamin (Corning Cellgro, Catalog #25005CV).
To determine enzyme inhibition IC50 values in Granta-519 and U-87 MG cells using Western Blot analysis. One day before experiment, Granta-519 cells were passaged to a density of 0.5×10^6 cells/ml. U-87 MG cells were trypsinized and 4×10^5 cells were seeded into 6-well plates and allow to grow overnight. The next day, Granta-519 cells were spun down at 1,500 rpm for 4 min, resuspend in fresh medium at 0.5×10^6 cells/ml and 3 mL of culture (1.5×10^6 cells) were seeded into 6 well plate. Eight-point, 3-fold serial dilutions of compound working stocks were added to cells (3 ul, 1:1,000 dilution, DMSO concentration was 0.1%; final top concentration at 1 uM) and incubated for 3 days. Cells incubated with DMSO was used as a vehicle control.
Cells were harvested 3 days later, resuspended in 15 uL PBS, lysed in 4% SDS, and homogenized by passing through homogenizer column (Omega Biotek, Catalog #: HCR003). Total protein concentrations were determined by BCA assay (ThermoFisher Scientific, Catalog #: 23225). Lysates were mixed with 5× Laemmli buffer and boiled for 5 min. Forty ug of total protein was separated on SDS-PAGE gels (Bio-Rad, catalog #: 4568083, 4568043), transferred to PVDF membrane, blocked with 5% dry milk (Bio-Rad, Catalog #: 1706404) in TBS with 0.1% v/v Tween 20 (TBST) for 1 hour at room temperature (RT), and incubated with primary antibodies (sDMA: Cell signaling, Catalog #: 13222, 1:3,000; β-Actin: sigma, Catalog #: 1:5,000) in 5% dry milk in TBST at 4° C. overnight. The next day, membranes were washed with TBST, 5×5 min, and incubated with HRP conjugated seconded antibody (GE Healthcare; Catalog #: NA934-1ML, NA931-1ML; 1:5,000) for 2 hours at RT, followed by 5×5 min washes with TBST, and incubation with ECL substrates (Bio-Rad, Catalog #: 1705061, 1705062). Chemiluminescent signal was captured with Fluochem HD2 imager (Proteinsimple). SmD3me2s bands were quantified by ImageJ. Signals were normalized to β-Actin and DMSO control. IC50 values were calculated using Graphpad Prism ([Inhibitor] vs. normalized response-Variable slope).

IC50 [2]: 25 nM
Structure (SMILES): Nc1ncnc2c1ccn2[C@@H]1O[C@H]([C@@H]2OCc3ccc(Cl)cc32)[C@@H](O)[C@H]1O [Example 5, (2R,3R,4S,5S)-2-(4-amino-7H-pyrrolo[2,3-d]pyrimidin-7-yl)-5-((R)-6-chloro-1,3-dihydroisobenzofuran-1-yl)tetrahydrofuran-3,4-diol]
increase in expression of γ-globin [1]: 8 fold
